From US20240293551A1, “USE OF ST-TYPE LIPID COMPOUNDS IN PREPARATION OF NUCLEIC ACID DELIVERY REAGENT AND RELATED PRODUCT” (INSTITUTE OF BASIC MEDICAL SCIENCES CHINESE ACADEMY OF …, priority 2021, published 2024)

Tested on: PGY-sRNA-26
Experiment: In vivo delivery study of lipid-nucleic acid mixture (oral gavage, RT-qPCR of PGY-sRNA-26 in tissues)
Parameters: species or system mouse
Details: for delivery efficacy over each tissue and blood tested (broad-spectrum delivery): all tissues and blood tested; for oral delivery of single-stranded sRNA nucleic acids into mouse intestinal tissue: intestine
Outline: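 C57BL/6 male mice (~6 weeks, 20-24 g), fasted 12 h, were gavaged with 10 nmol 3′-methylated PGY-sRNA-26 mixed with 100 μg lipid (heated 90° C. 15 min), versus saline or free sRNA (n=4 each). After 12 h, blood and tissues were Trizol-extracted; sRNA quantified by stem-loop RT-qPCR relative to U6.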

[1] = C57BL/6 mice, gavage, 100 μg lipid: 10 nmol PGY-sRNA-26, 12 hours
[2] = C57BL/6 mice, gavage, 100 μg lipid: 10 nmol PGY-sRNA-26, 12 hours, blood
[3] = C57BL/6 mice, gavage, 100 μg lipid: 10 nmol PGY-sRNA-26, 12 hours, femur

Compound	delivery efficacy over each tissue and blood tested (broad-spectrum delivery) [1]	oral delivery of single-stranded sRNA nucleic acids into mouse blood [2]	oral delivery of single-stranded sRNA nucleic acids into mouse brain tissue [1]	oral delivery of single-stranded sRNA nucleic acids into mouse femur [3]	oral delivery of single-stranded sRNA nucleic acids into mouse heart tissue [1]	oral delivery of single-stranded sRNA nucleic acids into mouse intestinal tissue [1]	oral delivery of single-stranded sRNA nucleic acids into mouse kidney tissue [1]	oral delivery of single-stranded sRNA nucleic acids into mouse liver tissue [1]	oral delivery of single-stranded sRNA nucleic acids into mouse lung tissue [1]	oral delivery of single-stranded sRNA nucleic acids into mouse spleen tissue [1]	oral delivery of single-stranded sRNA nucleic acids into mouse stomach tissue [1]	oral delivery of single-stranded sRNA nucleic acids into mouse blood (mouse, in vivo, po)	oral delivery of single-stranded sRNA nucleic acids into mouse femur (mouse, in vivo, po)
C=C1/C(=C\C=C2/CCC[C@]3(C)[C@@H]([C@H](C)/C=C/[C@H](C)C(C)(C)O)CC[C@@H]23)C[C@@H](O)C[C@@H]1O [Lipid 570]	exhibited the best delivery efficacy	can effectively orally deliver	can effectively orally deliver	can effectively orally deliver	can effectively orally deliver	can effectively orally deliver	can effectively orally deliver	can effectively orally deliver	can effectively orally deliver	can effectively orally deliver	can effectively orally deliver	–	–
C=C1CC[C@H](O)C/C1=C/C=C1\CCC[C@]2(C)[C@@H]([C@H](C)CCCC(C)(C)O)CC[C@@H]12 [Lipid 571]	–	can effectively orally deliver	can effectively orally deliver	can effectively orally deliver	can effectively orally deliver	can effectively orally deliver	can effectively orally deliver	can effectively orally deliver	can effectively orally deliver	can effectively orally deliver	can effectively orally deliver	–	–
CC(=O)[C@H]1CC[C@H]2[C@@H]3CCC4=CC(=O)CC[C@]4(C)[C@H]3CC[C@]12C [Lipid 575]	exhibited the best delivery efficacy	can effectively orally deliver	can effectively orally deliver	can effectively orally deliver	can effectively orally deliver	can effectively orally deliver	can effectively orally deliver	can effectively orally deliver	can effectively orally deliver	can effectively orally deliver	can effectively orally deliver	–	–
C[C@H](CCC(=O)O)[C@H]1CC[C@H]2[C@@H]3CC[C@@H]4C[C@H](O)CC[C@]4(C)[C@H]3CC[C@]12C [Lipid 577]	–	can effectively orally deliver	can effectively orally deliver	can effectively orally deliver	can effectively orally deliver	can effectively orally deliver	can effectively orally deliver	can effectively orally deliver	can effectively orally deliver	–	can effectively orally deliver	–	–
C[C@]12CC[C@H]3[C@@H](CCC4=CC(=O)CC[C@@]43C)[C@@H]1CC[C@@H]2O [Lipid 579]	–	–	–	–	–	–	–	–	–	–	–	can effectively orally deliver	can effectively orally deliver
C[C@H](CCC(=O)O)[C@H]1CC[C@H]2[C@@H]3[C@H](O)C[C@@H]4C[C@H](O)CC[C@]4(C)[C@H]3CC[C@]12C [Lipid 580]	–	can effectively orally deliver	can effectively orally deliver	can effectively orally deliver	can effectively orally deliver	can effectively orally deliver	–	can effectively orally deliver	can effectively orally deliver	can effectively orally deliver	can effectively orally deliver	–	–
C[C@H](CCC(=O)O)[C@H]1CC[C@H]2[C@@H]3CC[C@@H]4C[C@H](O)CC[C@]4(C)[C@H]3C[C@H](O)[C@]12C [Lipid 581]	exhibited the best delivery efficacy	can effectively orally deliver	can effectively orally deliver	can effectively orally deliver	can effectively orally deliver	can effectively orally deliver	can effectively orally deliver	can effectively orally deliver	can effectively orally deliver	can effectively orally deliver	can effectively orally deliver	–	–
CC(=O)OCC(=O)[C@@]1(O)CC[C@H]2[C@@H]3CCC4=CC(=O)CC[C@]4(C)[C@H]3[C@@H](O)C[C@@]21C [Lipid 582]	exhibited the best delivery efficacy	can effectively orally deliver	can effectively orally deliver	can effectively orally deliver	can effectively orally deliver	can effectively orally deliver	can effectively orally deliver	can effectively orally deliver	can effectively orally deliver	can effectively orally deliver	can effectively orally deliver	–	–
CC(C)CCC[C@@H](C)[C@H]1CC[C@H]2[C@@H]3CC[C@H]4C[C@@H](O)CC[C@]4(C)[C@H]3CC[C@]12C [Lipid 583, 5α-cholestan-3β-ol (3S,5S,8R,9S,10S,13R,14S,17R)-10,13-dimethyl-17-[(2R)-6-methylheptan-2-yl]-2,3,4,5,6,7,8,9,11,12,14,15,16,17-tetradecahydro-1H-cyclopenta[a]phenanthren-3-ol]	–	can effectively orally deliver	can effectively orally deliver	can effectively orally deliver	can effectively orally deliver	can effectively orally deliver	–	can effectively orally deliver	can effectively orally deliver	–	can effectively orally deliver	–	–
